{
  "source": "patent US6355799B1",
  "about": "“Substituted benzene compounds, process for their preparation, and herbicidal and defoliant compositions containing them” (ISK Americas Incorporated, priority 1997, dated 2002)",
  "assay_type_in_all_cases": "in vivo",
  "key": {"[1]": {"system": "redroot pigweed (Amaranthus retroflexus, AMARE)", "assay": "Pre-emerge test, greenhouse herbicide activity screening", "conditions": "pre-emerge, rated 14 days after application, 0 = no damage, 100 = complete death", "in_short": "(§1)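 Plants grown in 10 cm pots of sandy loam mix received acetone-dissolved compounds through a moving flat-fan nozzle. Doses ranged from 15 to 1000 g ai/ha. Pre-emerge pots were seeded one day earlier, post-emerge pots 8–21 days earlier. Fourteen days on, each pot was graded 0–100 for damage.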"}, "[2]": {"system": "barnyardgrass (Echinochloa crus-galli, ECHCG)", "assay": "Pre-emerge test, greenhouse herbicide activity screening", "conditions": "pre-emerge, rated 14 days after application, 0 = no damage, 100 = complete death", "in_short": "(§2)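 Sandy loam pots; pre-emerge: sown 1 d pre-spray, surface-watered after, then bottom-watered. Post-emerge: sown 8–21 d before, 2–3 leaf stage, + 0.25% v/v NIS, bottom-watered. Acetone, 187 l/ha track spray, 15–1000 g ai/ha. 0–100 injury score, day 14.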"}, "[3]": {"system": "common ragweed (Ambrosia artemisizfolia L., AMBEL)", "assay": "Pre-emerge test, greenhouse herbicide activity screening", "conditions": "pre-emerge, rated 14 days after application, 0 = no damage, 100 = complete death", "in_short": "as §2"}, "[4]": {"system": "green foxtail (Setaria viridis, SETVI)", "assay": "Pre-emerge test, greenhouse herbicide activity screening", "conditions": "pre-emerge, rated 14 days after application, 0 = no damage, 100 = complete death", "in_short": "as §2"}, "[5]": {"system": "ivyleaf morningglory (Ipomoea hederacea, IPOHE)", "assay": "Pre-emerge test, greenhouse herbicide activity screening", "conditions": "pre-emerge, rated 14 days after application, 0 = no damage, 100 = complete death", "in_short": "as §2"}, "[6]": {"system": "johnsongrass (Sorghum halepense, SORHA)", "assay": "Pre-emerge test, greenhouse herbicide activity screening", "conditions": "pre-emerge, rated 14 days after application, 0 = no damage, 100 = complete death", "in_short": "as §2"}, "[7]": {"system": "lambsquarters (Chenopodium album, CHEAL)", "assay": "Pre-emerge test, greenhouse herbicide activity screening", "conditions": "pre-emerge, rated 14 days after application, 0 = no damage, 100 = complete death", "in_short": "as §2"}, "[8]": {"system": "large crabgrass (Digitaria sanguinalis, DIGSA)", "assay": "Pre-emerge test, greenhouse herbicide activity screening", "conditions": "pre-emerge, rated 14 days after application, 0 = no damage, 100 = complete death", "in_short": "as §2"}, "[9]": {"system": "sicklepod (Cassia obtusifolia, CASOB)", "assay": "Pre-emerge test, greenhouse herbicide activity screening", "conditions": "pre-emerge, rated 14 days after application, 0 = no damage, 100 = complete death", "in_short": "as §2"}, "[10]": {"system": "velvetleaf (Abutilon theophrasti, ABUTH)", "assay": "Pre-emerge test, greenhouse herbicide activity screening", "conditions": "pre-emerge, rated 14 days after application, 0 = no damage, 100 = complete death", "in_short": "as §2"}, "[11]": {"system": "field corn (Zea mays L., var. Dekalb 535, CORN)", "assay": "Pre-emerge test, crop safety", "conditions": "pre-emerge, rated 14 days after application, 0 = no damage, 100 = complete death", "in_short": "(§3)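 Visual ratings on a 0-100 scale (0 no damage, 100 all plants dead) were taken at 14 days after treatment. Rates of 15-1000 g ai/ha in acetone, 187 l/ha, were sprayed onto soil one day after planting (pre-emerge) or onto 2-3 leaf plants with 0.25% v/v surfactant (post-emerge).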"}, "[12]": {"system": "upland rice (Oryza sp., var. Tebonnet, RICE)", "assay": "Pre-emerge test, crop safety", "conditions": "pre-emerge, rated 14 days after application, 0 = no damage, 100 = complete death", "in_short": "as §3"}, "[13]": {"system": "barnyardgrass (Echinochloa crus-galli, ECHCG)", "assay": "Post-emerge test, greenhouse herbicide activity screening", "conditions": "phytotoxicity rating 0-100 (0 no damage, 100 complete death), 14 days after application", "in_short": "as §1"}, "[14]": {"system": "common ragweed (Ambrosia artemisizfolia L., AMBEL)", "assay": "Post-emerge test, greenhouse herbicide activity screening", "conditions": "phytotoxicity rating 0-100 (0 no damage, 100 complete death), 14 days after application", "in_short": "as §1"}, "[15]": {"system": "green foxtail (Setaria viridis, SETVI)", "assay": "Post-emerge test, greenhouse herbicide activity screening", "conditions": "phytotoxicity rating 0-100 (0 no damage, 100 complete death), 14 days after application", "in_short": "as §1"}, "[16]": {"system": "ivyleaf morningglory (Ipomoea hederacea, IPOHE)", "assay": "Post-emerge test, greenhouse herbicide activity screening", "conditions": "phytotoxicity rating 0-100 (0 no damage, 100 complete death), 14 days after application", "in_short": "as §1"}, "[17]": {"system": "johnsongrass (Sorghum halepense, SORHA)", "assay": "Post-emerge test, greenhouse herbicide activity screening", "conditions": "phytotoxicity rating 0-100 (0 no damage, 100 complete death), 14 days after application", "in_short": "as §1"}, "[18]": {"system": "lambsquarters (Chenopodium album, CHEAL)", "assay": "Post-emerge test, greenhouse herbicide activity screening", "conditions": "phytotoxicity rating 0-100 (0 no damage, 100 complete death), 14 days after application", "in_short": "as §1"}, "[19]": {"system": "large crabgrass (Digitaria sanguinalis, DIGSA)", "assay": "Post-emerge test, greenhouse herbicide activity screening", "conditions": "phytotoxicity rating 0-100 (0 no damage, 100 complete death), 14 days after application", "in_short": "as §1"}, "[20]": {"system": "redroot pigweed (Amaranthus retroflexus, AMARE)", "assay": "Post-emerge test, greenhouse herbicide activity screening", "conditions": "phytotoxicity rating 0-100 (0 no damage, 100 complete death), 14 days after application", "in_short": "as §1"}, "[21]": {"system": "sicklepod (Cassia obtusifolia, CASOB)", "assay": "Post-emerge test, greenhouse herbicide activity screening", "conditions": "phytotoxicity rating 0-100 (0 no damage, 100 complete death), 14 days after application", "in_short": "as §1"}, "[22]": {"system": "velvetleaf (Abutilon theophrasti, ABUTH)", "assay": "Post-emerge test, greenhouse herbicide activity screening", "conditions": "phytotoxicity rating 0-100 (0 no damage, 100 complete death), 14 days after application", "in_short": "as §1"}, "[23]": {"system": "field corn (Zea mays L., var. Dekalb 535, CORN)", "assay": "Post-emerge test, crop safety", "conditions": "phytotoxicity rating 0-100 (0 no damage, 100 complete death), 14 days after application", "in_short": "as §2"}, "[24]": {"system": "upland rice (Oryza sp., var. Tebonnet, RICE)", "assay": "Post-emerge test, crop safety", "conditions": "phytotoxicity rating 0-100 (0 no damage, 100 complete death), 14 days after application", "in_short": "as §2"}},
  "data": [
    {"smiles": "COC(=O)C(=O)Nc1c(OC)c(Cl)cc(F)c1-n1c(=O)cc(C(F)(F)F)n(C)c1=O", "note": "[2-15]", "values": [
      {"measurement": "Pre-emerge Herbicidal Activity AMARE (phytotoxicity rating, scale 0-100)", "setting": "[1]; 63 g ai/ha", "result": 0},
      {"measurement": "Pre-emerge Herbicidal Activity AMARE (phytotoxicity rating, scale 0-100)", "setting": "[1]; 250 g ai/ha", "result": 80},
      {"measurement": "Pre-emerge Herbicidal Activity ECHCG (phytotoxicity rating, scale 0-100)", "setting": "[2]; 63 g ai/ha", "result": 0},
      {"measurement": "Pre-emerge Herbicidal Activity ECHCG (phytotoxicity rating, scale 0-100)", "setting": "[2]; 250 g ai/ha", "result": 0},
      {"measurement": "Pre-emerge Herbicidal Activity AMBEL (phytotoxicity rating, scale 0-100)", "setting": "[3]; 63 g ai/ha", "result": 0},
      {"measurement": "Pre-emerge Herbicidal Activity AMBEL (phytotoxicity rating, scale 0-100)", "setting": "[3]; 250 g ai/ha", "result": 0},
      {"measurement": "Pre-emerge Herbicidal Activity SETVI (phytotoxicity rating, scale 0-100)", "setting": "[4]; 63 g ai/ha", "result": 0},
      {"measurement": "Pre-emerge Herbicidal Activity SETVI (phytotoxicity rating, scale 0-100)", "setting": "[4]; 250 g ai/ha", "result": 0},
      {"measurement": "Pre-emerge Herbicidal Activity IPOHE (phytotoxicity rating, scale 0-100)", "setting": "[5]; 63 g ai/ha", "result": 20},
      {"measurement": "Pre-emerge Herbicidal Activity IPOHE (phytotoxicity rating, scale 0-100)", "setting": "[5]; 250 g ai/ha", "result": 30},
      {"measurement": "Pre-emerge Herbicidal Activity SORHA (phytotoxicity rating, scale 0-100)", "setting": "[6]; 63 g ai/ha", "result": 0},
      {"measurement": "Pre-emerge Herbicidal Activity SORHA (phytotoxicity rating, scale 0-100)", "setting": "[6]; 250 g ai/ha", "result": 0},
      {"measurement": "Pre-emerge Herbicidal Activity CHEAL (phytotoxicity rating, scale 0-100)", "setting": "[7]; 63 g ai/ha", "result": 60},
      {"measurement": "Pre-emerge Herbicidal Activity CHEAL (phytotoxicity rating, scale 0-100)", "setting": "[7]; 250 g ai/ha", "result": 40},
      {"measurement": "Pre-emerge Herbicidal Activity DIGSA (phytotoxicity rating, scale 0-100)", "setting": "[8]; 63 g ai/ha", "result": 0},
      {"measurement": "Pre-emerge Herbicidal Activity DIGSA (phytotoxicity rating, scale 0-100)", "setting": "[8]; 250 g ai/ha", "result": 0},
      {"measurement": "Pre-emerge Herbicidal Activity CASOB (phytotoxicity rating, scale 0-100)", "setting": "[9]; 63 g ai/ha", "result": 0},
      {"measurement": "Pre-emerge Herbicidal Activity CASOB (phytotoxicity rating, scale 0-100)", "setting": "[9]; 250 g ai/ha", "result": 0},
      {"measurement": "Pre-emerge Herbicidal Activity ABUTH (phytotoxicity rating, scale 0-100)", "setting": "[10]; 63 g ai/ha", "result": 20},
      {"measurement": "Pre-emerge Herbicidal Activity ABUTH (phytotoxicity rating, scale 0-100)", "setting": "[10]; 250 g ai/ha", "result": 90},
      {"measurement": "Pre-emerge crop damage CORN (phytotoxicity rating, scale 0-100)", "setting": "[11]; 63 g ai/ha", "result": 0},
      {"measurement": "Pre-emerge crop damage CORN (phytotoxicity rating, scale 0-100)", "setting": "[11]; 250 g ai/ha", "result": 0},
      {"measurement": "Pre-emerge crop damage RICE (phytotoxicity rating, scale 0-100)", "setting": "[12]; 63 g ai/ha", "result": 10},
      {"measurement": "Pre-emerge crop damage RICE (phytotoxicity rating, scale 0-100)", "setting": "[12]; 250 g ai/ha", "result": 0},
      {"measurement": "Post-emerge Herbicidal Activity ECHCG", "setting": "[13]; 63 g ai/ha", "result": 0},
      {"measurement": "Post-emerge Herbicidal Activity ECHCG", "setting": "[13]; 250 g ai/ha", "result": 0},
      {"measurement": "Post-emerge Herbicidal Activity AMBEL", "setting": "[14]; 63 g ai/ha", "result": 10},
      {"measurement": "Post-emerge Herbicidal Activity AMBEL", "setting": "[14]; 250 g ai/ha", "result": 40},
      {"measurement": "Post-emerge Herbicidal Activity SETVI", "setting": "[15]; 63 g ai/ha", "result": 0},
      {"measurement": "Post-emerge Herbicidal Activity SETVI", "setting": "[15]; 250 g ai/ha", "result": 0},
      {"measurement": "Post-emerge Herbicidal Activity IPOHE", "setting": "[16]; 63 g ai/ha", "result": 40},
      {"measurement": "Post-emerge Herbicidal Activity IPOHE", "setting": "[16]; 250 g ai/ha", "result": 90},
      {"measurement": "Post-emerge Herbicidal Activity SORHA", "setting": "[17]; 63 g ai/ha", "result": 0},
      {"measurement": "Post-emerge Herbicidal Activity SORHA", "setting": "[17]; 250 g ai/ha", "result": 0},
      {"measurement": "Post-emerge Herbicidal Activity CHEAL", "setting": "[18]; 63 g ai/ha", "result": 40},
      {"measurement": "Post-emerge Herbicidal Activity CHEAL", "setting": "[18]; 250 g ai/ha", "result": 60},
      {"measurement": "Post-emerge Herbicidal Activity DIGSA", "setting": "[19]; 63 g ai/ha", "result": 0},
      {"measurement": "Post-emerge Herbicidal Activity DIGSA", "setting": "[19]; 250 g ai/ha", "result": 0},
      {"measurement": "Post-emerge Herbicidal Activity AMARE", "setting": "[20]; 63 g ai/ha", "result": 0},
      {"measurement": "Post-emerge Herbicidal Activity AMARE", "setting": "[20]; 250 g ai/ha", "result": 20},
      {"measurement": "Post-emerge Herbicidal Activity CASOB", "setting": "[21]; 63 g ai/ha", "result": 10},
      {"measurement": "Post-emerge Herbicidal Activity CASOB", "setting": "[21]; 250 g ai/ha", "result": 10},
      {"measurement": "Post-emerge Herbicidal Activity ABUTH", "setting": "[22]; 63 g ai/ha", "result": 70},
      {"measurement": "Post-emerge Herbicidal Activity ABUTH", "setting": "[22]; 250 g ai/ha", "result": 90},
      {"measurement": "Post-emerge Herbicidal Activity CORN (crop damage)", "setting": "[23]; 63 g ai/ha", "result": 0},
      {"measurement": "Post-emerge Herbicidal Activity CORN (crop damage)", "setting": "[23]; 250 g ai/ha", "result": 0},
      {"measurement": "Post-emerge Herbicidal Activity RICE (crop damage)", "setting": "[24]; 63 g ai/ha", "result": 0},
      {"measurement": "Post-emerge Herbicidal Activity RICE (crop damage)", "setting": "[24]; 250 g ai/ha", "result": 0}
    ]}
  ]
}
